The conditions of assay [1]: stated as known; cited from earlier work.
The nature of assay [2]: Antioxidant activity against peroxynitrite radicals (proteolytic action on target protein, FIG. 2B). The assay is classed as biochemical. The settings on record: prevention of degradation of target protein. The source says: FIG. 2B is a proteolytic action by a peroxynitrite radical.
(§1) Therefore, by coexisting with these antioxidants, the antioxidant effect of IMDP is retained both for hydroxyl radicals and peroxynitrite radicals.

For assay [3] the following is noted: stated as known; cited from earlier work. The source holds these as a separate data set.
Assay [4] can be described thus: Antioxidant activity against hydroxyl radicals (degradation of target protein, FIG. 2A). The assay is classed as biochemical. As to conditions: prevention of degradation of target protein.
From the text: FIG. 2A is a hydroxyl radical, in which 1 is untreated target protein, 2 is no antioxidant added, 3 is IMDP added, 4 is vitamin C added, 5 is ferulic acid added, 6 is IMDP+vitamin C+ferulic acid added; and
as §1

As for `O=C1O[C@H]([C@@H](O)CO)C(O)=C1O` [vitamin C], the “antioxidant activity against peroxynitrite radicals (known)” value in assay [1] is “strong antioxidant activity”. The “antioxidant activity against peroxynitrite radicals” value in assay [2] is on record as “strong antioxidant activity”. Regarding `CC1=C(/C=C/C(C)=C/C=C/C(C)=C/C=C/C=C(C)/C=C/C=C(C)/C=C/C2=C(C)C(=O)[C@@H](O)CC2(C)C)C(C)(C)C[C@H](O)C1=O` [astaxanthin], the “antioxidant activity against hydroxyl radicals (known)” value in assay [3] is “strong antioxidant activity”. `COc1cc(/C=C/C(=O)O)ccc1O` [ferulic acid]: the “antioxidant activity against hydroxyl radicals” value in assay [4] is listed as “strong antioxidant activity”.

With vitamin E, in assay [3], the “antioxidant activity against hydroxyl radicals (known)” value was “strong antioxidant activity”.

The values above are taken from patent publication US20210015886A1, “COMPOSITION FOR IMPROVING MILD COGNITIVE IMPAIRMENT AND METHOD FOR IMPROVING MILD COGNITIVE IMPAIRMENT” (TOKAI BUSSAN CO., LTD., priority 2019, published 2021).
